Patent publication US4518602A, “Vinyl carboxylic acid derivatives, their production and use as inhibitors of thromboxane synthetase” (priority 1982, dated 1985)

Biological target: T1, Thromboxane A2 (TXA2) synthetase (Equus caballus, UniProt A0A9L0T8T9)
T1 sequence (A0A9L0T8T9 2-534): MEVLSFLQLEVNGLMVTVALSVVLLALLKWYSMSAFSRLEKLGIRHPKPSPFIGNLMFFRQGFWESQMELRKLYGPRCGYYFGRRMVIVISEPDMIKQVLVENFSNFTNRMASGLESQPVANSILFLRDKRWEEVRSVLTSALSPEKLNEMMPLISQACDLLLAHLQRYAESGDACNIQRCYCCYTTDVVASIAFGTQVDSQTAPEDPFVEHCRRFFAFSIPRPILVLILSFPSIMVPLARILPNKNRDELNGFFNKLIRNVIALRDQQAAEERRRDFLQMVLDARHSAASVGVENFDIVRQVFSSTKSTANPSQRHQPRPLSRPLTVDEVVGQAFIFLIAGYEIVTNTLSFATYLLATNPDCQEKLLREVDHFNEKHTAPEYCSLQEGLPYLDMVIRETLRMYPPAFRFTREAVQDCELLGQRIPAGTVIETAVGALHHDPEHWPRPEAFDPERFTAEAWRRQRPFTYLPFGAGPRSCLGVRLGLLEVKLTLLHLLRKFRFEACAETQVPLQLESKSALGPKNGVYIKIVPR
Assay: Inhibitory Action on Thromboxane A2 (TXA2) Synthetase (indomethacin-treated horse platelet microsomes, TXB2 radioimmunoassay)
Assay type: biochemical
Protocol: As a specimen of TXA2 synthetase was employed horse platelet microsomes treated with indomethacin (indomethacin-treated horse platelet microsomes: IPM), which were prepared according to the method described by Needleman et al. (Science 193 163, 1976).
to 60 μl of 50 mM tris-buffer solution (pH 7.5) of IPM (containing 140 μg as protein) was added 60 μl of the buffer solution or the solution containing the test compounds at various concentrations. The mixtures were left standing for 5 minutes at room temperature. Then at 0° C. to 100 μl portion of the mixture was added 20 μl of the buffer solution containing 30 ng of prostaglandin H2 (PGH2). The mixtures were left standing for 5 minutes at 0° C. to cause formation of thromboxane A2 (TXA2). The reaction of thromboxane A2 production was stopped by the addition of 500 μl of the tris-buffer to the mixture. Using 50 μl of the mixtures, the quantitative determination of thromboxane B2 (TXB2), a stable metabolite of TXA2, was done by means of the radioimmunoassay (Shibouta et al., Biochem. Pharmacol. 28 3601, 1979).
The inhibitory activity of the compounds on TXA2 -synthetase was determined from the difference in the production of TXB2 between the test group and the control group.

inhibition at 0.03 µM (3 × 10^-8 M) [%]	inhibition at 0.1 µM (10^-7 M) [%]	% Inhibition on thromboxane A2 synthetase (3 × 10^-8 M) [%]	% Inhibition on thromboxane A2 synthetase (10^-7 M) [%]	Structure (SMILES)
44	92			CC(C)(CCCC/C=C(/c1ccccc1)c1cccnc1)C(=O)O [Compound 1-m]
33	90			O=C(O)C(CCC/C=C(/c1ccccc1)c1cccnc1)Cc1ccccc1 (stereo not drawn) [3'-e]
57	85			Cc1ccc(S(=O)(=O)C(CCCC/C=C(\c2ccccc2)c2cccnc2)C(=O)O)cc1 (stereo not drawn) [Compound 1-d]
57	93			N#Cc1ccc(CC(CCC/C=C(\c2ccccc2)c2cccnc2)C(=O)O)cc1 (stereo not drawn) [3'-n]
		46	90	CC(C)(CCC/C=C(/c1cccnc1)c1cccs1)C(=O)O [3'-p]
66	93			C#CCC(CCC/C=C(\c1ccccc1)c1cccnc1)C(=O)O (stereo not drawn) [3'-h]
41	96			O=C(O)C(CCC/C=C(\c1cccnc1)c1cccs1)c1ccccc1 (stereo not drawn) [Compound 2-n]
45	80			O=C(O)C(CCCC=C(c1ccccc1)c1cccnc1)[S+]([O-])c1ccccc1 (stereo not drawn) [Compound 1-e]
50	88			O=C(O)C(CCC/C=C(/c1ccccc1)c1cccnc1)Sc1ccccc1 (stereo not drawn) [Compound 4-c]
32	77			O=C(O)C(CCC/C=C(\c1ccccc1)c1cccnc1)C1=CCCC1 (stereo not drawn) [Compound 5-i]
30	87			COC(=O)C(C)(CCC/C=C(\c1ccccc1)c1cccnc1)Sc1ccccc1 (stereo not drawn) [Compound 4-h]
59	92			C=C(C)C(CCC/C=C(\c1ccccc1)c1cccnc1)C(=O)O (stereo not drawn) [Compound 5-g]
60	93			O=C(O)C(CCC/C=C(\c1ccccc1)c1cccnc1)Sc1ccccc1 (stereo not drawn) [Compound 4-b]
62	92			CC(C)(CCC/C=C(/c1cccnc1)c1cccs1)C(=O)O [Compound 2-d, (Z)-2,2-dimethyl-7-(3-pyridyl)-7-(2-thienyl)-6-heptenoic acid]
45	80			Cc1ccc(S(=O)(=O)C(CCCC/C=C(/c2ccccc2)c2cccnc2)C(=O)O)cc1 (stereo not drawn) [Compound 1-b]
	97	92		CC(C)(CCC/C=C(\c1cccnc1)c1cccs1)C(=O)O [Compound 2-c, (E)-2,2-dimethyl-7-(3-pyridyl)-7-(2-thienyl)-6-heptenoic acid]
42	88			COCC(CCC/C=C(\c1ccccc1)c1cccnc1)C(=O)O (stereo not drawn) [3'-i]
65	90			CC(CCCC=C(c1cccnc1)c1ccsc1)C(=O)O (stereo not drawn) [Compound 2-e]
52	84			CSC(CCC/C=C(\c1ccccc1)c1cccnc1)C(=O)O (stereo not drawn) [Compound 4-a]
48	90			CC(C)(CCCC/C=C(\c1ccccc1)c1cccnc1)C(=O)O [Compound 1-l]
83	92			CC(C)(CCC/C=C(\c1ccccc1)c1cccnc1)C(=O)O [Compound 2-a, (E)-2,2-dimethyl-7-phenyl-7-(3-pyridyl)-6-heptenoic acid]
49	90			CC(C)(CCC/C=C(/c1ccccc1)c1cccnc1)C(=O)O [Compound 2-b, (Z)-2,2-dimethyl-7-phenyl-7-(3-pyridyl)-6-heptenoic acid]
		60	92	CC(C)(CCC/C=C(\c1cccnc1)c1cccs1)C(=O)O [3'-o]
41	81			CC(C)(O)C(CCC/C=C(\c1ccccc1)c1cccnc1)C(=O)O (stereo not drawn) [Compound 5-j]
